Assay results from ChEMBL document CHEMBL1140367, “Discovery and activity of (1R,4S,6R)-N-[(1R)-2-[4-cyclohexyl-4-[[(1,1-dimethylethyl)amino]carbonyl]-1-piperidinyl]-1-[(4-fluorophenyl)methyl]-2-oxoethyl]-2-methyl-2-azabicyclo[2.2.2]octane-6-carboxamide (3, RY764), a potent and selective melanocortin subtype-4 receptor agonist” (Bioorg Med Chem Lett, 2005).

Columns and labels:
[1] = biological target: T1, Melanocortin receptor 5 (Homo sapiens, UniProt P33032); experiment: Inhibition concentration (binding affinity) against human melanocortin receptor 5 by displacement of [125I]NDP-alpha-MSH from the human receptors expressed in CHO cells; format: cell-based
T1 sequence (P33032 whole entry): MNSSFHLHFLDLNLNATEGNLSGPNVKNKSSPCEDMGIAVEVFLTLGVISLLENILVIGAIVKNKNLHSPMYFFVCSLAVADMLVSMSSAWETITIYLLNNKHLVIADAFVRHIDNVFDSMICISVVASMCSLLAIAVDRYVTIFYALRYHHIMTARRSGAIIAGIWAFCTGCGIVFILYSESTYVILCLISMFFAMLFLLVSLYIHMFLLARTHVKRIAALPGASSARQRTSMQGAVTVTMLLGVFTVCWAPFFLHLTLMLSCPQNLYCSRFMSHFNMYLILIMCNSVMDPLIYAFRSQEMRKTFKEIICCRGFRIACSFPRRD

[2] = biological target: T1, Melanocortin receptor 5; conditions: 10 uM
[3] = biological target: T2, Melanocortin receptor 4 (Homo sapiens, UniProt P32245); experiment: Inhibition concentration (binding affinity) exhibited against human melanocortin receptor 4 by radio labeled ligand assay (Displacement of [125I]NDP-alpha-MSH from the human receptors expressed in CHO cells); format: functional, cell-based
T2 sequence (P32245 whole entry): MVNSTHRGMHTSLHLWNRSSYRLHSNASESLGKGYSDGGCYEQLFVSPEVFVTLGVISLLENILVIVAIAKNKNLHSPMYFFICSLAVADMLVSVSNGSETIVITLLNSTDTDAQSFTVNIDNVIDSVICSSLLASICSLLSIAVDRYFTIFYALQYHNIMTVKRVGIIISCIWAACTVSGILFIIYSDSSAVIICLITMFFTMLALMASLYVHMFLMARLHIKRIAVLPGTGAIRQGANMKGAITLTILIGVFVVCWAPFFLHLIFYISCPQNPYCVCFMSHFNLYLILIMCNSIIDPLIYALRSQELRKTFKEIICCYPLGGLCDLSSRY

[4] = biological target: T2, Melanocortin receptor 4; experiment: Inhibition concentration (binding affinity) against human melanocortin receptor 4 by displacement of [125I]NDP-alpha-MSH from the human receptors expressed in CHO cells; format: cell-based
[5] = biological target: T3, Melanocortin receptor 3 (Homo sapiens, UniProt P41968); experiment: Inhibition concentration (binding affinity) against human melanocortin receptor 3 by displacement of [125I]NDP-alpha-MSH from the human receptors expressed in CHO cells; format: cell-based
T3 sequence (P41968 whole entry): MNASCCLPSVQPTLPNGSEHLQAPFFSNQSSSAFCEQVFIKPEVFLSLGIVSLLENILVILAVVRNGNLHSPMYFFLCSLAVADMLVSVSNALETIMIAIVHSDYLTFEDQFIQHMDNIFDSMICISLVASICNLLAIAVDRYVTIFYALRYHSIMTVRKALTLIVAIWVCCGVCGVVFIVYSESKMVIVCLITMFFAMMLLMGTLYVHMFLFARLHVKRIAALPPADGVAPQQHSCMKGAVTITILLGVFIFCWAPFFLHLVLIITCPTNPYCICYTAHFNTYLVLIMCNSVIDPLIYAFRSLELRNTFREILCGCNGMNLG

[6] = biological target: T3, Melanocortin receptor 3; experiment: Percentage of cAMP accumulation at 10 uM compound relative to alpha-MSH for melanocortin receptor 3; format: functional
[7] = Clearance in rhesus as a solution in water at 0.5 mg/kg, iv and 2 mg/kg po.; format: ADME, organism-based; conditions: cercopithecidae, in vivo
[8] = Bioavailability in beagles as a solution in water at 0.5 mg/kg, iv and 2.0 mg/kg, po.; format: ADME, organism-based, Canis lupus familiaris; conditions: beagle, dog, in vivo
[9] = biological target: T4, Adrenocorticotropic hormone receptor (Homo sapiens, UniProt Q01718); experiment: Inhibition concentration (binding affinity) against human melanocortin receptor 2 by displacement of [125I]NDP-alpha-MSH from the human receptors expressed in CHO cells; format: cell-based
T4 sequence (Q01718 whole entry): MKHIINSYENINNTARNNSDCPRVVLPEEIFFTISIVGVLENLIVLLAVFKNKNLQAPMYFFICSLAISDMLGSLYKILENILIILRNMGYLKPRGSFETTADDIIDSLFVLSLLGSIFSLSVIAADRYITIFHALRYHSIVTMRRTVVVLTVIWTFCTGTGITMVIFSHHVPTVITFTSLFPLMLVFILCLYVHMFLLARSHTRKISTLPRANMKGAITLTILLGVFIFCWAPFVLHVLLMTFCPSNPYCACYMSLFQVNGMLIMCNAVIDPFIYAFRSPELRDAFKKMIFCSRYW

[10] = Cmax value in Sprague Dawley rats as a solution in water at 1 mg/kg, iv and 20 mg/kg, po.; format: ADME, organism-based; conditions: rat, in vivo
[11] = biological target: T1, Melanocortin receptor 5; experiment: Concentration of compound at 50% maximum cAMP accumulation in human melanocortin receptor (hMC5R); format: functional
[12] = Cmax value in rhesus as a solution in water at 0.5 mg/kg, iv and 2 mg/kg po.; format: ADME, organism-based; conditions: cercopithecidae, in vivo
[13] = Volume of distribution in Sprague Dawley rats as a solution in water at 1 mg/kg, iv and 20 mg/kg, po.; format: ADME, organism-based; conditions: rat, in vivo, read-out: Vdss
[14] = biological target: T5, Melanocortin receptor 4 (Mus musculus, UniProt P56450); experiment: Concentration of compound at 50% maximum cAMP accumulation in mouse melanocortin receptor (mMC4R); format: functional
T5 sequence (P56450 whole entry): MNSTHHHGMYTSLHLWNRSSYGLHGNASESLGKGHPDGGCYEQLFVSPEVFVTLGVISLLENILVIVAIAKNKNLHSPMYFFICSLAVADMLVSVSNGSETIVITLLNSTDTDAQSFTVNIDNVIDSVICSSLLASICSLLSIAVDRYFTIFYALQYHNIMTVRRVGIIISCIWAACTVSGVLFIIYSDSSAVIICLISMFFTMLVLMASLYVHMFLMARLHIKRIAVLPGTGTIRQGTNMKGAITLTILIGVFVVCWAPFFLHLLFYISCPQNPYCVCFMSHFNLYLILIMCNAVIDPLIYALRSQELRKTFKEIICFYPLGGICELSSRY

[15] = […] in rhesus as a solution in water at 0.5 mg/kg, iv and 2 mg/kg po.; format: organism-based; conditions: cercopithecidae, in vivo
[16] = biological target: T3, Melanocortin receptor 3; experiment: Percentage of cAMP accumulation at 10 uM compound relative to alpha-MSH in hMC3R; format: functional
[17] = Half life in beagles as a solution in water at 0.5 mg/kg, iv and 2.0 mg/kg, po.; format: ADME, organism-based, Canis lupus familiaris; conditions: beagle, dog, in vivo
[18] = Volume of distribution in rhesus as a solution in water at 0.5 mg/kg, iv and 2 mg/kg po.; format: ADME, organism-based; conditions: cercopithecidae, in vivo, read-out: Vdss
[19] = Clearance in Sprague Dawley rats as a solution in water at 1 mg/kg, iv and 20 mg/kg, po.; format: ADME, organism-based; conditions: rat, in vivo
[20] = biological target: T4, Adrenocorticotropic hormone receptor; conditions: 10 uM
[21] = biological target: T6, Melanocortin receptor 4 (Rattus norvegicus, UniProt P70596); experiment: Concentration of compound at 50% maximum cAMP accumulation in rat melanocortin receptor (rMC4R); format: functional
T6 sequence (P70596 whole entry): as the sequence (P56450 whole entry) above, with Y21H, P36S, S199T, T239A, S329P, S330G counted along it

[22] = Volume of distribution in beagles as a solution in water at 0.5 mg/kg, iv and 2.0 mg/kg, po.; format: ADME, organism-based, Canis lupus familiaris; conditions: beagle, dog, in vivo, read-out: Vdss
[23] = Clearance in beagles as a solution in water at 0.5 mg/kg, iv and 2.0 mg/kg, po.; format: ADME, organism-based, Canis lupus familiaris; conditions: beagle, dog, in vivo
[24] = biological target: T6, Melanocortin receptor 4; experiment: Inhibition concentration (binding affinity) against rat melanocortin receptor 4 by displacement of [125I]NDP-alpha-MSH from the human receptors expressed in CHO cells; format: cell-based
[25] = […] in beagles as a solution in water at 0.5 mg/kg, iv and 2.0 mg/kg, po.; format: organism-based, Canis lupus familiaris; conditions: beagle, dog, in vivo
[26] = Cmax value in beagles as a solution in water at 0.5 mg/kg, iv and 2.0 mg/kg, po.; format: ADME, organism-based, Canis lupus familiaris; conditions: beagle, dog, in vivo
[27] = Bioavailability in Sprague Dawley rats as a solution in water at 1 mg/kg, iv and 20 mg/kg, po.; format: ADME, organism-based; conditions: rat, in vivo
[28] = biological target: T2, Melanocortin receptor 4; experiment: Concentration of compound at 50% maximum cAMP accumulation in human melanocortin receptor (hMC4R); format: functional
[29] = Bioavailability in rhesus as a solution in water at 0.5 mg/kg, iv and 2 mg/kg po.; format: ADME, organism-based, Macaca mulatta; conditions: rhesus monkey, in vivo
[30] = biological target: Melanocyte-stimulating hormone receptor (Homo sapiens, UniProt Q01726); experiment: Inhibition concentration (binding affinity) against human melanocortin receptor 1 by displacement of [125I]NDP-alpha-MSH from the human receptors expressed in CHO cells; format: cell-based
Sequence of Melanocyte-stimulating hormone receptor (Q01726 whole entry): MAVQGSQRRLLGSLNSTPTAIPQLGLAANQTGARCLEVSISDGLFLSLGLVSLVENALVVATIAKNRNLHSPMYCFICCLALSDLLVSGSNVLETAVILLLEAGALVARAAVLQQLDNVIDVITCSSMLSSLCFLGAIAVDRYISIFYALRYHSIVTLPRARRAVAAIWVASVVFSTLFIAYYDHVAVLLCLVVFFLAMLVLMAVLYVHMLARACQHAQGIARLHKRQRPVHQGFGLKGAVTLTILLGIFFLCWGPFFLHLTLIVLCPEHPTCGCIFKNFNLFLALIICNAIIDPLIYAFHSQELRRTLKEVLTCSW

[31] = Half life in Sprague Dawley rats as a solution in water at 1 mg/kg, iv and 20 mg/kg, po.; format: ADME, organism-based; conditions: rat, in vivo
[32] = Half life in rhesus as a solution in water at 0.5 mg/kg, iv and 2 mg/kg po.; format: ADME, organism-based; conditions: cercopithecidae, in vivo
[33] = […] in Sprague Dawley rats as a solution in water at 1 mg/kg, iv and 20 mg/kg, po.; format: organism-based; conditions: rat, in vivo
[34] = biological target: T5, Melanocortin receptor 4; experiment: Inhibition concentration (binding affinity) against mouse melanocortin receptor 4 by displacement of [125I]NDP-alpha-MSH from the human receptors expressed in CHO cells; format: cell-based
[35] = biological target: T1, Melanocortin receptor 5; experiment: Inhibition concentration (binding affinity) exhibited against human melanocortin receptor 5 by radio labeled ligand assay (Displacement of [125I]NDP-alpha-MSH from the human receptors expressed in CHO cells); format: functional, cell-based
[36] = biological target: T2, Melanocortin receptor 4; experiment: Effective concentration (binding affinity) exhibited against human melanocortin receptor 4 by radio labeled ligand assay (Displacement of [125I]NDP-alpha-MSH from the human receptors expressed in CHO cells); format: functional, cell-based

With `CC(C)(C)NC(=O)C1(C2CCCCC2)CCN(C(=O)[C@@H](Cc2ccc(F)cc2)NC(=O)[C@H]2C[C@@H]3CC[C@@H]2NC3)CC1` as the compound, how does the IC50 [1] read?
The IC50 was 1020 nM.

And the Max [2]?
The Max was 3%.

And the EC50 [3]?
Its EC50 is 52 nM.

And the IC50 [4]?
The IC50 was 14 nM.

And the IC50 [5]?
The IC50 was 620 nM.

And the pMax [6]?
The pMax was 3%.

Which IC50 [1] does the source give for `CN1C[C@@H]2CC[C@H]1[C@@H](C(=O)N[C@H](Cc1ccc(F)cc1)C(=O)N1CCC(C(=O)NC(C)(C)C)(C3CCCCC3)CC1)C2` here?
The IC50 was 1080 nM.

What about the Max [2] of the same compound?
Its Max is 5%.

And the EC50 [3]?
Its EC50 is 34 nM.

What about the IC50 [4] of the same compound?
Its IC50 is 6 nM.

And the IC50 [5]?
Its IC50 is 410 nM.

And the Max [6]?
Its Max is 4%.

What does the source list for `CN1C[C@H]2CC[C@@H]1[C@H](C(=O)N[C@H](Cc1ccc(F)cc1)C(=O)N1CCC(C(=O)NC(C)(C)C)(C3CCCCC3)CC1)C2`?
clearance [7]: 3.4 mL/min/kg; bioavailability [8]: 50%; IC50 [9]: > 10000 nM; Max [2]: 33%; Cmax [10]: 870 nM; EC50 [11]: 850 nM; Cmax [12]: 850 nM; Vd [13]: 9.6 L/kg; EC50 [14]: 6000 nM; Tmax [15]: 1.3 h; Activation [16]: 8%; half-life [17]: 4.9 h; Vd [18]: 0.8 L/kg; clearance [19]: 46.9 mL/min/kg; Activation [20]: 2%; EC50 [21]: 5000 nM; Vd [22]: 2.3 L/kg; clearance [23]: 6.6 mL/min/kg; Max [6]: 8%; IC50 [24]: 3000 nM; Tmax [25]: 1.1 h; Cmax [26]: 910 nM; bioavailability [27]: 32%; EC50 [28]: 11000 nM; bioavailability [29]: 16%; IC50 [30]: 750 nM; half-life [31]: 3.2 h; half-life [32]: 4.6 h; Tmax [33]: 3 h; IC50 [34]: 3000 nM

Which IC50 [1] does the source give for `CN1C[C@H]2CC[C@@H]1[C@@H](C(=O)N[C@H](Cc1ccc(F)cc1)C(=O)N1CCC(C(=O)NC(C)(C)C)(C3CCCCC3)CC1)C2` here?
The IC50 was 6460 nM.

What about the Max [2] of the same compound?
The Max was 14%.

And the IC50 [4]?
Its IC50 is 28 nM.

And the IC50 [5]?
The IC50 was 1350 nM.

What about the EC50 [35] of the same compound?
The EC50 was 850 nM.

And the Max [6]?
The Max was 5%.

And the EC50 [36]?
Its EC50 is 165 nM.

Which IC50 [1] does the source give for `CC(C)(C)NC(=O)C1(C2CCCCC2)CCN(C(=O)[C@@H](Cc2ccc(F)cc2)NC(=O)[C@H]2C[C@H]3CC[C@@H]2NC3)CC1` here?
Its IC50 is 9870 nM.

And the Max [2]?
The Max was 26%.

And the EC50 [3]?
Its EC50 is 238 nM.

What about the IC50 [4] of the same compound?
Its IC50 is 41 nM.

And the IC50 [5]?
Its IC50 is 2060 nM.

And the EC50 [35]?
The EC50 was 1980 nM.

What about the Max [6] of the same compound?
The Max was 10%.

With `CC(C)(C)NC(=O)C1(C2CCCCC2)CCN(C(=O)[C@@H](Cc2ccc(F)cc2)NC(=O)C2CC3CCC2NC3)CC1` (single isomer, unassigned) as the compound, how does the IC50 [1] read?
The IC50 was 940 nM.

And the Max [2]?
Its Max is 11%.

What about the EC50 [3] of the same compound?
The EC50 was 20 nM.

And the IC50 [4]?
The IC50 was 16 nM.

What about the IC50 [5] of the same compound?
Its IC50 is 620 nM.

What about the Max [6] of the same compound?
The Max was 4%.
